Laboratory results from paper PMC9603901, “Therapeutic Potential of Antimicrobial Peptide PN5 against Multidrug-Resistant E. coli and Anti-Inflammatory Activity in a Septic Mouse Model” (Microbiology Spectrum, 2022).
Where no end group is shown, it is not given here.

Target: T1, elastase (Homo sapiens, UniProt P08246)
T1 construct: purchased Sigma-Aldrich 324681
Assay: Resistance to proteolytic degradation, RP-HPLC
Type: in vitro ADME
Conditions: 50 μg PN5, 10 μg mL^−1 elastase, 0.1 M Tris-HCl pH 8.0, 37°C, 0 to 540 min; RP-HPLC C18, 214 nm
Protocol: The stability of PN5 in the presence of the enzyme was measured by treatment with elastase. First, 10 μg mL^−1 elastase in 0.1 M Tris-HCl (pH 8.0) was incubated with 50 μg PN5 at 37°C with shaking (180 rpm), with aliquots collected at 0, 30, 60, 120, 360, 540, and 720 min. After incubation, each sample was observed by RP-HPLC with a Jupiter C18 column (4.6 by 250 mm, 300 Å, 5 μm). E. coli 25922 and S. aureus 25923 were cultured in LB and TSB media with shaking (180 rpm) at 37°C, washed twice with 10 mM sodium phosphate buffer (pH 7.4), suspended in 10 mL LB and TSB media at 2 × 10^5 CFU mL^−1, mixed with 0.2% agarose, and dried for 1 h. Paper disks (6 mm) were placed on the dried agarose, and 50 μg PN5 aliquots was dropped onto the disks. The disks were stored in a 37°C incubator for 24 h. PN5- and elastase (10 μg mL^−1)-treated PN5 was prepared to evaluate the susceptibility to E. coli 25922 and S. aureus 25923. PN5 (6.25, 12.5, 25, 50, and 100 μg) was diluted in 10 mM sodium phosphate buffer (pH 7.4) and 10 μg mL^−1 elastase. E. coli 25922 and S. aureus 25923 were prepared at 2 × 10^5 CFU mL^−1. Peptides with 10 μg mL^−1 elastase and bacteria were incubated for 9 h with shaking (180 rpm) and observed using a visible spectrophotometer (Pharmacia Biotech, Uppsala, Sweden) ([60]).

T1 sequence (P08246 30-267): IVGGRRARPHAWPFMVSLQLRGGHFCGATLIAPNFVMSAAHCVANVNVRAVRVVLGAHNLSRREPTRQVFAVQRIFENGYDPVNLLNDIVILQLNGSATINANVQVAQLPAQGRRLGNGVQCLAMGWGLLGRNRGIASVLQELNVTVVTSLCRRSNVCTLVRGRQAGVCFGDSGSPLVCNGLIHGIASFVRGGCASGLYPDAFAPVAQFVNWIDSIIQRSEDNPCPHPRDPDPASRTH

**Q.** Which “peak of residual peptide after incubation with elastase” value does the source give for FKFLARTGKFL-NH2 [PN5] here?
**A.** Its value is “remained even after 9 h”.
